This note sets out measurements from USRE37781E1, “Substituted cyclic carbonyls and derivatives thereof useful as retroviral protease inhibitors” (DuPont Pharmaceuticals Company, priority 1991, dated 2002).

One may read the IC90 as the point of the concentration-response curve where the effect stands at 90%.

Converted amounts (≈) assume the structure as drawn. Some results are limits rather than exact numbers.

One experiment deals with HIV-1 (RF) in MT-2 cells. The experiment is described as follows: microbe, parasite or virus in culture. The experiment is classed as cell-based. The following applies: HIV RNA assay, HIV-1 infected MT-2 cells; Table 2d. The gist of the method:
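Read-out: gag and pol viral RNA captured by 5′-biotinylated oligonucleotides on streptavidin-coated wells, detected with alkaline phosphatase-linked reporter oligonucleotides, calibrated against BH10 in vitro transcripts. Virus stocks (RF, MN, IIIB) come from H9 cultures; MT-2 host cells kept in RPMI 1640, 5% FCS.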
For the compound `O=C(NCCCCCN1C(=O)N(CCCCCNC(=O)c2cccc(F)c2)C(Cc2ccccc2)C(O)C(O)C1Cc1ccccc1)c1cccc(F)c1` (stereo not shown) [15EY], the IC90 entry was “+++ (+++=<10 μg/mL)”.

As for `CNCC(=O)NCCCCCN1C(=O)N(CCCCCNC(=O)CNC)C(Cc2ccccc2)C(O)C(O)C1Cc1ccccc1.Cl.Cl` (stereo not shown) [15EZ], the IC90 result is reported as “++/+ (The ++/+ is used in the cases where an IC90 was determined to be >50 μg/mL)”.

`Cl.Cl.O=C(NCCCCCN1C(=O)N(CCCCCNC(=O)c2ccncc2)C(Cc2ccccc2)C(O)C(O)C1Cc1ccccc1)c1ccncc1` (stereo not shown) [15FA]: the IC90 result was “+++ (+++=<10 μg/mL)”.

In the case of `O=C(NCCCCCN1C(=O)N(CCCCCNC(=O)c2ccccc2F)C(Cc2ccccc2)C(O)C(O)C1Cc1ccccc1)c1ccccc1F` (stereo not shown) [15FB], the IC90 result was “+++ (+++=<10 μg/mL)”.

On to `O=C(NCCCCCN1C(=O)N(CCCCCNC(=O)c2ccccc2F)C(Cc2ccccc2)C(O)C(O)C1Cc1ccccc1)c1ccc(F)cc1` (stereo not shown) [15FC], for which the IC90 entry was “++/+ (The ++/+ is used in the cases where an IC90 was determined to be >50 μg/mL)”.

For `Cl.Cl.O=C(CN1CCOCC1)NCCCCCN1C(=O)N(CCCCCNC(=O)CN2CCOCC2)C(Cc2ccccc2)C(O)C(O)C1Cc1ccccc1` (stereo not shown) [15FE], the IC90 result was “++/+ (The ++/+ is used in the cases where an IC90 was determined to be >50 μg/mL)”.

Regarding `O=C(NCCCCCN1C(=O)N(CCCCCNC(=O)c2cnccn2)C(Cc2ccccc2)C(O)C(O)C1Cc1ccccc1)c1cnccn1` (stereo not shown) [15FF], the IC90 result is listed as “++/+ (The ++/+ is used in the cases where an IC90 was determined to be >50 μg/mL)”.

Regarding `O=C(NCCCCCN1C(=O)N(CCCCCNC(=O)c2cc(F)cc(F)c2)C(Cc2ccccc2)C(O)C(O)C1Cc1ccccc1)c1cc(F)cc(F)c1` (stereo not shown) [15FG], the IC90 result is on record as “++/+ (The ++/+ is used in the cases where an IC90 was determined to be >50 μg/mL)”.

For the compound `CN(C)CCCCN1C(=O)N(CCCCN(C)C)C(Cc2ccccc2)C(O)C(O)C1Cc1ccccc1.Cl.Cl` (stereo not shown) [15FH], the IC90 result is listed as “++/+ (The ++/+ is used in the cases where an IC90 was determined to be >50 μg/mL)”.

As for `O=C(NCCCCCN1C(=O)N(CCCCCNC(=O)c2cccc(C(F)(F)F)c2)C(Cc2ccccc2)C(O)C(O)C1Cc1ccccc1)c1cccc(C(F)(F)F)c1` (stereo not shown) [15FJ], the IC90 entry was “++/+ (The ++/+ is used in the cases where an IC90 was determined to be >50 μg/mL)”.

Staying with this experiment, now noted: Human immunodeficiency virus 1, MT2, 48 h, HIV RNA assay, HIV-1 infected MT-2 cells; Table 2d; read-out: IC90.
On to `N#CCCCCN1C(=O)N(CCCCC#N)C(Cc2ccccc2)C(O)C(O)C1Cc1ccccc1` (stereo not shown) [15FD], for which the IC90 is 10 to 100 µg/mL (≈ 20.5 to 205 µM).

As for `NCCCCN1C(=O)N(CCCCN)C(Cc2ccccc2)C(O)C(O)C1Cc1ccccc1` (stereo not shown) [15FI], the IC90 is more than 50 µg/mL.

Still in this experiment, the particulars now being: Human immunodeficiency virus 1, MT2, 48 h, Table 2d; HIV RNA assay; read-out: IC90.
Turning to `[N-]=[N+]=NCCCCCN1C(=O)N(CCCCCN=[N+]=[N-])C(Cc2ccccc2)C(O)C(O)C1Cc1ccccc1` (stereo not shown) [15EM], the IC90 was less than 10 µg/mL.

On to `NCCCCCN1C(=O)N(CCCCCN)C(Cc2ccccc2)C(O)C(O)C1Cc1ccccc1` (stereo not shown) [15EP], for which the IC90 was more than 50 µg/mL.

As for `O=C(O)c1ccc(CN2C(=O)N(Cc3ccc(CO)cc3)C(Cc3ccccc3)C(O)C(O)C2Cc2ccccc2)cc1` (stereo not shown) [15XA], the IC90 lay within 10 to 100 µg/mL (≈ 17.2 to 172 µM).

As to `O=Cc1ccc(CN2C(=O)N(Cc3ccc(CO)cc3)C(Cc3ccccc3)C(O)C(O)C2Cc2ccccc2)cc1` (stereo not shown) [15XB], the IC90 was less than 10 µg/mL.

Turning to `CC(O)c1cccc(CN2C(=O)N(Cc3cccc(C(C)O)c3)C(Cc3ccccc3)C(O)C(O)C2Cc2ccccc2)c1` (stereo not shown) [15XD], the IC90 was less than 10 µg/mL.

With `NS(=O)(=O)c1cccc(CN2C(=O)N(Cc3cccc(S(N)(=O)=O)c3)C(Cc3ccccc3)C(O)C(O)C2Cc2ccccc2)c1` (stereo not shown) [15XQ], the IC90 was less than 10 µg/mL.

Staying with this experiment, now noted: Human immunodeficiency virus 1, MT2, 48 h, Table 2d; class symbols; read-out: IC90.
For `Nc1cccc(CN2C(=O)N(CC3CC3)C(Cc3ccccc3)C(O)C(O)C2Cc2ccccc2)c1` (stereo not shown) [15G], the IC90 was less than 10 µg/mL.

Consider `O=C1N(Cc2cccc([N+](=O)[O-])c2)C(Cc2ccccc2)C(O)C(O)C(Cc2ccccc2)N1CC1CC1` (stereo not shown) [15H], for which the IC90 is less than 10 µg/mL.

The target in another experiment is single-chain tethered dimer of HIV protease (Human immunodeficiency virus 1, UniProt P04585). The experiment is described as follows: biochemical. It counts as biochemical. Also noted: fused on or other part: A second copy of the same protease unit is joined to the first by a short peptide tether, giving one polypeptide. The note with it: HIV protease inhibition, HPLC method; Table 2d; read-out: HPLC K1.
In the case of `O=C(NCCCCCN1C(=O)N(CCCCCNC(=O)c2cccc(F)c2)C(Cc2ccccc2)C(O)C(O)C1Cc1ccccc1)c1cccc(F)c1` (stereo not shown) [15EY], the Ki was 10 to 1000 nM.

Consider `CNCC(=O)NCCCCCN1C(=O)N(CCCCCNC(=O)CNC)C(Cc2ccccc2)C(O)C(O)C1Cc1ccccc1.Cl.Cl` (stereo not shown) [15EZ], for which the Ki lay in the range of 10 to 1000 nM.

For `Cl.Cl.O=C(NCCCCCN1C(=O)N(CCCCCNC(=O)c2ccncc2)C(Cc2ccccc2)C(O)C(O)C1Cc1ccccc1)c1ccncc1` (stereo not shown) [15FA], the Ki was 10 to 1000 nM.

With `O=C(NCCCCCN1C(=O)N(CCCCCNC(=O)c2ccccc2F)C(Cc2ccccc2)C(O)C(O)C1Cc1ccccc1)c1ccccc1F` (stereo not shown) [15FB], the Ki is 10 to 1000 nM.

Regarding `O=C(NCCCCCN1C(=O)N(CCCCCNC(=O)c2ccccc2F)C(Cc2ccccc2)C(O)C(O)C1Cc1ccccc1)c1ccc(F)cc1` (stereo not shown) [15FC], the Ki was 10 to 1000 nM.

As to `Cl.Cl.O=C(CN1CCOCC1)NCCCCCN1C(=O)N(CCCCCNC(=O)CN2CCOCC2)C(Cc2ccccc2)C(O)C(O)C1Cc1ccccc1` (stereo not shown) [15FE], the Ki was in the range of 10 to 1000 nM.

As for `O=C(NCCCCCN1C(=O)N(CCCCCNC(=O)c2cnccn2)C(Cc2ccccc2)C(O)C(O)C1Cc1ccccc1)c1cnccn1` (stereo not shown) [15FF], the Ki was more than 1000 nM.

Consider `O=C(NCCCCCN1C(=O)N(CCCCCNC(=O)c2cc(F)cc(F)c2)C(Cc2ccccc2)C(O)C(O)C1Cc1ccccc1)c1cc(F)cc(F)c1` (stereo not shown) [15FG], for which the Ki fell in the range of 10 to 1000 nM.

On to `CN(C)CCCCN1C(=O)N(CCCCN(C)C)C(Cc2ccccc2)C(O)C(O)C1Cc1ccccc1.Cl.Cl` (stereo not shown) [15FH], for which the Ki is 10 to 1000 nM.

With `O=C(NCCCCCN1C(=O)N(CCCCCNC(=O)c2cccc(C(F)(F)F)c2)C(Cc2ccccc2)C(O)C(O)C1Cc1ccccc1)c1cccc(C(F)(F)F)c1` (stereo not shown) [15FJ], the Ki lay within 10 to 1000 nM.

The experiment is the same for the next values; noted with them: read-out: HPLC K1; HIV protease inhibition, HPLC method; Table 2d.
As for `N#CCCCCN1C(=O)N(CCCCC#N)C(Cc2ccccc2)C(O)C(O)C1Cc1ccccc1` (stereo not shown) [15FD], the Ki was in the range of 10 to 1000 nM.

On to `NCCCCN1C(=O)N(CCCCN)C(Cc2ccccc2)C(O)C(O)C1Cc1ccccc1` (stereo not shown) [15FI], for which the Ki was more than 1000 nM.

The same experiment, now with this note: read-out: HPLC K1; Table 2d; HIV protease inhibition, HPLC method.
`[N-]=[N+]=NCCCCCN1C(=O)N(CCCCCN=[N+]=[N-])C(Cc2ccccc2)C(O)C(O)C1Cc1ccccc1` (stereo not shown) [15EM]: the Ki was 10 to 1000 nM.

In the case of `NCCCCCN1C(=O)N(CCCCCN)C(Cc2ccccc2)C(O)C(O)C1Cc1ccccc1` (stereo not shown) [15EP], the Ki was more than 1000 nM.

For the compound `O=C(O)c1ccc(CN2C(=O)N(Cc3ccc(CO)cc3)C(Cc3ccccc3)C(O)C(O)C2Cc2ccccc2)cc1` (stereo not shown) [15XA], the Ki was less than 10 nM.

Turning to `O=Cc1ccc(CN2C(=O)N(Cc3ccc(CO)cc3)C(Cc3ccccc3)C(O)C(O)C2Cc2ccccc2)cc1` (stereo not shown) [15XB], the Ki was less than 10 nM.

Take `CC(O)c1cccc(CN2C(=O)N(Cc3cccc(C(C)O)c3)C(Cc3ccccc3)C(O)C(O)C2Cc2ccccc2)c1` (stereo not shown) [15XD]: the Ki was less than 10 nM.

As to `NS(=O)(=O)c1cccc(CN2C(=O)N(Cc3cccc(S(N)(=O)=O)c3)C(Cc3ccccc3)C(O)C(O)C2Cc2ccccc2)c1` (stereo not shown) [15XQ], the Ki was less than 10 nM.

The same experiment, now with this note: read-out: HPLC K1; Table 2d; class symbols.
With `Nc1cccc(CN2C(=O)N(CC3CC3)C(Cc3ccccc3)C(O)C(O)C2Cc2ccccc2)c1` (stereo not shown) [15G], the Ki was less than 10 nM.

For `O=C1N(Cc2cccc([N+](=O)[O-])c2)C(Cc2ccccc2)C(O)C(O)C(Cc2ccccc2)N1CC1CC1` (stereo not shown) [15H], the Ki is less than 10 nM.
